Results: ChEMBL document CHEMBL3885881, “DrugMatrix”

Organism: Rattus norvegicus
Assay: DrugMatrix - Regimen: Daily Repeat
Type: toxicity, organism-based, Sprague-Dawley
Parameters: regimen Daily Repeat, gender Male, age 6-8 weeks
Conditions: in vivo, po, route oral GAVAGE, vehicle .5 % CMC; for BASOPHIL / EOSINOPHIL / ERYTHROCYTE COUNT / HEMATOCRIT / HEMOGLOBIN / LEUKOCYTE COUNT / LYMPHOCYTE / MEAN CORPUSCULAR HEMOGLOBIN / MEAN CORPUSCULAR HEMOGLOBIN CONCENTRATION / MEAN CORPUSCULAR VOLUME / MONOCYTE / NEUTROPHIL / PLATELET COUNT: tissue Blood; for ALANINE AMINOTRANSFERASE / ALBUMIN / ALKALINE PHOSPHATASE / ASPARTATE AMINOTRANSFERASE / BLOOD UREA NITROGEN / CHLORIDE / CHOLESTEROL / CREATINE PHOSPHOKINASE / CREATININE / GLUCOSE / PHOSPHORUS / POTASSIUM / SODIUM / TOTAL BILIRUBIN / TOTAL PROTEIN: tissue Plasma
[1] = 0 mg/kg, 72 h, dose level Control, time 3 day
[2] = 0 mg/kg, 120 h, dose level Control, time 5 day
[3] = 0.09 mg/kg, 72 h, dose level Low, time 3 day
[4] = 0.09 mg/kg, 120 h, dose level Low, time 5 day
[5] = 0.9 mg/kg, 72 h, dose level High, time 3 day
[6] = 0.9 mg/kg, 120 h, dose level High, time 5 day

`CCN1C[C@]2(COC)[C@H](O)C[C@H](OC)[C@@]34[C@@H]5C[C@@]6(O)[C@H](OC(=O)c7ccccc7)[C@@H]5[C@@](OC(C)=O)([C@@H]([C@H](OC)[C@H]23)[C@@H]14)[C@@H](O)[C@@H]6OC` [ACONITINE] was tested, and the BASOPHIL [1] was 0.68%, the EOSINOPHIL [1] was 0.46% and the “ERYTHROCYTE COUNT” value [1] was 7.15 x10E6/uL. The HEMATOCRIT [1] was 45.44%, the HEMOGLOBIN [1] was 14.1 G/DL and the “LEUKOCYTE COUNT” value [1] was 9.78 x10E3/uL. For the same molecule, the LYMPHOCYTE [1] was 84.44%, the “MEAN CORPUSCULAR HEMOGLOBIN” value [1] was 19.72 pg and the “MEAN CORPUSCULAR HEMOGLOBIN CONCENTRATION” value [1] was 31 G/DL. For the same molecule, the “MEAN CORPUSCULAR VOLUME” value [1] was 63.66 fL, the MONOCYTE [1] was 2.14% and the NEUTROPHIL [1] was 11.16%. The “PLATELET COUNT” value [1] was 1378.2 x10E3/uL, the “ALANINE AMINOTRANSFERASE” value [1] was 42.33 u/L and the ALBUMIN [1] was 3.8 G/DL. The “ALKALINE PHOSPHATASE” value [1] was 388.17 u/L, the “ASPARTATE AMINOTRANSFERASE” value [1] was 68 u/L and the “BLOOD UREA NITROGEN” value [1] was 16.17 mg/dL. The CHLORIDE [1] was 96.67 MEQ/L, the CHOLESTEROL [1] was 71 mg/dL and the “CREATINE PHOSPHOKINASE” value [1] was 156.17 u/L. The CREATININE [1] was 0.57 mg/dL, the GLUCOSE [1] was 193.67 mg/dL and the PHOSPHORUS [1] was 11.43 mg/dL. For the same molecule, the POTASSIUM [1] was 7 MEQ/L, the SODIUM [1] was 140.33 MEQ/L and the “TOTAL BILIRUBIN” value [1] was 0.48 mg/dL. The “TOTAL PROTEIN” value [1] was 6.8 G/DL, the BASOPHIL [2] was 1.47% and the EOSINOPHIL [2] was 1%. The “ERYTHROCYTE COUNT” value [2] was 7.12 x10E6/uL, the HEMATOCRIT [2] was 45.47% and the HEMOGLOBIN [2] was 14.1 G/DL. The “LEUKOCYTE COUNT” value [2] was 11.38 x10E3/uL, the LYMPHOCYTE [2] was 82.57% and the “MEAN CORPUSCULAR HEMOGLOBIN” value [2] was 19.82 pg. The “MEAN CORPUSCULAR HEMOGLOBIN CONCENTRATION” value [2] was 31.02 G/DL, the “MEAN CORPUSCULAR VOLUME” value [2] was 63.88 fL and the MONOCYTE [2] was 2.2%. The NEUTROPHIL [2] was 11.97%, the “PLATELET COUNT” value [2] was 1267 x10E3/uL and the “ALANINE AMINOTRANSFERASE” value [2] was 38 u/L. For the same molecule, the ALBUMIN [2] was 3.72 G/DL, the “ALKALINE PHOSPHATASE” value [2] was 391 u/L and the “ASPARTATE AMINOTRANSFERASE” value [2] was 65.83 u/L. For the same molecule, the “BLOOD UREA NITROGEN” value [2] was 14.17 mg/dL, the CHLORIDE [2] was 107.67 MEQ/L and the CHOLESTEROL [2] was 61 mg/dL. The “CREATINE PHOSPHOKINASE” value [2] was 148.33 u/L, the CREATININE [2] was 0.57 mg/dL and the GLUCOSE [2] was 177.17 mg/dL. It also gave a PHOSPHORUS [2] of 12.07 mg/dL, a POTASSIUM [2] of 7.2 MEQ/L and an SODIUM [2] of 151.5 MEQ/L. For the same molecule, the “TOTAL BILIRUBIN” value [2] was 0.58 mg/dL, the “TOTAL PROTEIN” value [2] was 6.72 G/DL and the BASOPHIL [3] was 0.43%. The EOSINOPHIL [3] was 0.4%, the “ERYTHROCYTE COUNT” value [3] was 7.13 x10E6/uL and the HEMATOCRIT [3] was 45.67%. For the same molecule, the HEMOGLOBIN [3] was 14.3 G/DL, the “LEUKOCYTE COUNT” value [3] was 11.21 x10E3/uL and the LYMPHOCYTE [3] was 84.83%. For the same molecule, the “MEAN CORPUSCULAR HEMOGLOBIN” value [3] was 20.07 pg, the “MEAN CORPUSCULAR HEMOGLOBIN CONCENTRATION” value [3] was 31.3 G/DL and the “MEAN CORPUSCULAR VOLUME” value [3] was 64.07 fL. For the same molecule, the MONOCYTE [3] was 2.23%, the NEUTROPHIL [3] was 11.1% and the “PLATELET COUNT” value [3] was 1445.33 x10E3/uL. The “ALANINE AMINOTRANSFERASE” value [3] was 31.33 u/L, the ALBUMIN [3] was 3.93 G/DL and the “ALKALINE PHOSPHATASE” value [3] was 342 u/L. The “ASPARTATE AMINOTRANSFERASE” value [3] was 61.33 u/L, the “BLOOD UREA NITROGEN” value [3] was 14.33 mg/dL and the CHLORIDE [3] was 96.67 MEQ/L. For the same molecule, the CHOLESTEROL [3] was 69.33 mg/dL, the “CREATINE PHOSPHOKINASE” value [3] was 136.67 u/L and the CREATININE [3] was 0.57 mg/dL. For the same molecule, the GLUCOSE [3] was 209 mg/dL, the PHOSPHORUS [3] was 12.67 mg/dL and the POTASSIUM [3] was 6.4 MEQ/L. The SODIUM [3] was 140.67 MEQ/L, the “TOTAL BILIRUBIN” value [3] was 0.4 mg/dL and the “TOTAL PROTEIN” value [3] was 7.1 G/DL. The BASOPHIL [4] was 0.73%, the EOSINOPHIL [4] was 0.3% and the “ERYTHROCYTE COUNT” value [4] was 7.49 x10E6/uL. For the same molecule, the HEMATOCRIT [4] was 47.87%, the HEMOGLOBIN [4] was 14.97 G/DL and the “LEUKOCYTE COUNT” value [4] was 9.72 x10E3/uL. The LYMPHOCYTE [4] was 82.5%, the “MEAN CORPUSCULAR HEMOGLOBIN” value [4] was 20.07 pg and the “MEAN CORPUSCULAR HEMOGLOBIN CONCENTRATION” value [4] was 31.37 G/DL. The “MEAN CORPUSCULAR VOLUME” value [4] was 63.9 fL, the MONOCYTE [4] was 2% and the NEUTROPHIL [4] was 13.77%. For the same molecule, the “PLATELET COUNT” value [4] was 1482.33 x10E3/uL, the “ALANINE AMINOTRANSFERASE” value [4] was 38.67 u/L and the ALBUMIN [4] was 3.83 G/DL. For the same molecule, the “ALKALINE PHOSPHATASE” value [4] was 409.67 u/L, the “ASPARTATE AMINOTRANSFERASE” value [4] was 66.33 u/L and the “BLOOD UREA NITROGEN” value [4] was 13.33 mg/dL. The CHLORIDE [4] was 107 MEQ/L, the CHOLESTEROL [4] was 62.67 mg/dL and the “CREATINE PHOSPHOKINASE” value [4] was 135.67 u/L. It also gave a CREATININE [4] of 0.67 mg/dL, a GLUCOSE [4] of 154.33 mg/dL and a PHOSPHORUS [4] of 12.77 mg/dL. The POTASSIUM [4] was 7.43 MEQ/L, the SODIUM [4] was 151.33 MEQ/L and the “TOTAL BILIRUBIN” value [4] was 0.5 mg/dL. For the same molecule, the “TOTAL PROTEIN” value [4] was 6.93 G/DL, the BASOPHIL [5] was 0.57% and the EOSINOPHIL [5] was 0.37%. The “ERYTHROCYTE COUNT” value [5] was 6.91 x10E6/uL, the HEMATOCRIT [5] was 44.07% and the HEMOGLOBIN [5] was 13.83 G/DL. The “LEUKOCYTE COUNT” value [5] was 11.28 x10E3/uL, the LYMPHOCYTE [5] was 85.87% and the “MEAN CORPUSCULAR HEMOGLOBIN” value [5] was 20.03 pg. For the same molecule, the “MEAN CORPUSCULAR HEMOGLOBIN CONCENTRATION” value [5] was 31.4 G/DL, the “MEAN CORPUSCULAR VOLUME” value [5] was 63.73 fL and the MONOCYTE [5] was 1.8%. For the same molecule, the NEUTROPHIL [5] was 10.03%, the “PLATELET COUNT” value [5] was 1654.67 x10E3/uL and the “ALANINE AMINOTRANSFERASE” value [5] was 36 u/L. For the same molecule, the ALBUMIN [5] was 3.73 G/DL, the “ALKALINE PHOSPHATASE” value [5] was 364.67 u/L and the “ASPARTATE AMINOTRANSFERASE” value [5] was 63.33 u/L. The “BLOOD UREA NITROGEN” value [5] was 14 mg/dL, the CHLORIDE [5] was 97.33 MEQ/L and the CHOLESTEROL [5] was 62.67 mg/dL. For the same molecule, the “CREATINE PHOSPHOKINASE” value [5] was 126.33 u/L, the CREATININE [5] was 0.5 mg/dL and the GLUCOSE [5] was 187 mg/dL. For the same molecule, the PHOSPHORUS [5] was 11.57 mg/dL, the POTASSIUM [5] was 6.97 MEQ/L and the SODIUM [5] was 138.67 MEQ/L. The “TOTAL BILIRUBIN” value [5] was 0.4 mg/dL, the “TOTAL PROTEIN” value [5] was 6.6 G/DL and the BASOPHIL [6] was 0.47%. The EOSINOPHIL [6] was 0.3%, the “ERYTHROCYTE COUNT” value [6] was 7.11 x10E6/uL and the HEMATOCRIT [6] was 44.93%. The HEMOGLOBIN [6] was 13.73 G/DL, the “LEUKOCYTE COUNT” value [6] was 9.26 x10E3/uL and the LYMPHOCYTE [6] was 88.1%. The “MEAN CORPUSCULAR HEMOGLOBIN” value [6] was 19.37 pg, the “MEAN CORPUSCULAR HEMOGLOBIN CONCENTRATION” value [6] was 30.6 G/DL and the “MEAN CORPUSCULAR VOLUME” value [6] was 63.23 fL. For the same molecule, the MONOCYTE [6] was 1.83%, the NEUTROPHIL [6] was 9.33% and the “PLATELET COUNT” value [6] was 1288 x10E3/uL. For the same molecule, the “ALANINE AMINOTRANSFERASE” value [6] was 40.33 u/L, the ALBUMIN [6] was 3.67 G/DL and the “ALKALINE PHOSPHATASE” value [6] was 314 u/L. The “ASPARTATE AMINOTRANSFERASE” value [6] was 66 u/L, the “BLOOD UREA NITROGEN” value [6] was 12.33 mg/dL and the CHLORIDE [6] was 108.33 MEQ/L. The CHOLESTEROL [6] was 66 mg/dL, the “CREATINE PHOSPHOKINASE” value [6] was 136 u/L and the CREATININE [6] was 0.63 mg/dL. It also gave a GLUCOSE [6] of 161 mg/dL, a PHOSPHORUS [6] of 12.37 mg/dL and a POTASSIUM [6] of 7.3 MEQ/L. For the same molecule, the SODIUM [6] was 151.67 MEQ/L, the “TOTAL BILIRUBIN” value [6] was 0.33 mg/dL and the “TOTAL PROTEIN” value [6] was 6.57 G/DL.
